From PubChem BioAssay AID256 (DTP/NCI, 2004) come the findings set out here.

Where “and” joins values, the source holds several entries; their conditions need not be identical. Equal values may be shown once. Inconclusive results and toxic doses are left out.

The test relates to CD2F1 mice, L1210 leukemia ip, survival T/C. Put plainly: NCI In Vivo Anticancer Drug Screen. Data for tumor model L1210 Leukemia (intraperitoneal) in CD2F1 (CDF1) mice. The settings on record: higher = longer survival. In a few lines:
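Antitumor effect is scored in animals hosting a serially transplanted tumor. Values compare compound-dosed animals against vehicle-only controls as a simple quotient.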

The mark [1] stands for this setting: endpoint: mean survival time, dose: 100.0 mg/kg/injection, schedule: Q04DX003 (ip), vehicle: saline with Tween-80.
Where [2] appears, read: endpoint: mean survival time, dose: 200.0 mg/kg/injection, schedule: Q04DX003 (ip), vehicle: saline with Tween-80.
Where [3] appears, read: endpoint: mean survival time, dose: 400.0 mg/kg/injection, schedule: Q04DX003 (ip), vehicle: saline with Tween-80.
The mark [4] stands for this setting: endpoint: mean survival time, dose: 25.0 mg/kg/injection, schedule: Q04DX003 (ip), vehicle: saline with Tween-80.
[5] abbreviates: endpoint: mean survival time, dose: 50.0 mg/kg/injection, schedule: Q04DX003 (ip), vehicle: saline with Tween-80.
Where [6] appears, read: endpoint: mean survival time, dose: 5.0 mg/kg/injection, schedule: Q01DX001 (ip), vehicle: saline.
Setting [7] is: endpoint: mean survival time, dose: 10.0 mg/kg/injection, schedule: Q01DX001 (ip), vehicle: saline.
The mark [8] stands for this setting: endpoint: mean survival time, dose: 20.0 mg/kg/injection, schedule: Q01DX001 (ip), vehicle: saline.
Setting [9] is: endpoint: mean survival time, dose: 25.0 mg/kg/injection, schedule: Q01DX009 (ip), vehicle: saline with Tween-80.
[10] abbreviates: endpoint: mean survival time, dose: 100.0 mg/kg/injection, schedule: Q01DX009 (ip), vehicle: saline with Tween-80.
Where [11] appears, read: endpoint: mean survival time, dose: 100.0 mg/kg/injection, schedule: Q04DX002 (ip), vehicle: saline.
Setting [12] is: endpoint: mean survival time, dose: 200.0 mg/kg/injection, schedule: Q04DX002 (ip), vehicle: saline.

Consider `CCN(C)N=Nc1ccc(NC(N)=O)cc1`, for which the T/C was 109 % of control and 112 % of control (endpoint: mean survival time, dose: 4.68 mg/kg/injection, schedule: Q01DX009 (ip), vehicle: Klucel (hydroxypropylcellulose) (HPC)); 119 % of control and 108 % of control (endpoint: mean survival time, dose: 9.37 mg/kg/injection, schedule: Q01DX009 (ip), vehicle: Klucel (hydroxypropylcellulose) (HPC)); 124 % of control (endpoint: mean survival time, dose: 18.75 mg/kg/injection, schedule: Q01DX009 (ip), vehicle: Klucel (hydroxypropylcellulose) (HPC)); 152 % of control (endpoint: mean survival time, dose: 37.5 mg/kg/injection, schedule: Q01DX009 (ip), vehicle: Klucel (hydroxypropylcellulose) (HPC)).
For `CC(CC(=O)Nc1ccccc1)C(=O)O` (stereo not given), the T/C runs as follows: under setting [1], 103 % of control; under setting [2], 101 % of control; under setting [3], 106 % of control.
`Cc1cccc([N+](=O)[O-])n1`: the T/C by setting is: under setting [4], 109 % of control; under setting [5], 95 % of control; under setting [1], 98 % of control.
Consider `COc1ccc2c(c1[N+](=O)[O-])CC[C@@H]1[C@@H]2CC[C@]2(C)C(=O)CC[C@@H]12`, for which the T/C is 103 % of control (endpoint: median survival time, dose: 50.0 mg/kg/injection, schedule: Q01DX009 (ip), vehicle: saline with Tween-80); 103 % of control (endpoint: median survival time, dose: 100.0 mg/kg/injection, schedule: Q01DX009 (ip), vehicle: saline with Tween-80); 102 % of control (endpoint: median survival time, dose: 200.0 mg/kg/injection, schedule: Q01DX009 (ip), vehicle: saline with Tween-80); 103 % of control (endpoint: median survival time, dose: 400.0 mg/kg/injection, schedule: Q01DX009 (ip), vehicle: saline with Tween-80); 106 % of control (endpoint: median survival time, dose: 800.0 mg/kg/injection, schedule: Q01DX009 (ip), vehicle: saline with Tween-80).
Regarding `O=C(O)c1cc[c]([Hg][S]c2ncnc3nc[nH]c23)cc1`, the T/C was 98 % of control under setting [6]; 98 % of control under setting [7]; 101 % of control under setting [8]; 98 % of control under setting [4]; 119 % of control (endpoint: mean survival time, dose: 33.0 mg/kg/injection, schedule: Q04DX003 (ip), vehicle: saline sonified); 172 % of control (endpoint: mean survival time, dose: 37.5 mg/kg/injection, schedule: Q01DX009 (ip), vehicle: saline sonified). In addition, the T/C was 98 % of control (endpoint: mean survival time, dose: 40.0 mg/kg/injection, schedule: Q01DX001 (ip), vehicle: saline); 119 % of control (endpoint: mean survival time, dose: 50.0 mg/kg/injection, schedule: Q04DX003 (ip), vehicle: saline sonified); 104 % of control under setting [5]; 104 % of control (endpoint: mean survival time, dose: 80.0 mg/kg/injection, schedule: Q01DX001 (ip), vehicle: saline); 120 % of control (endpoint: mean survival time, dose: 100.0 mg/kg/injection, schedule: Q01DX009 (ip), vehicle: saline sonified); 121 % of control and 101 % of control under setting [1].
With `CC(/C=N/O)=N\O.CC(/C=N/O)=N\O.[Pd]`, the T/C (endpoint: mean survival time, dose: 1.56 mg/kg/injection, schedule: Q01DX009 (ip), vehicle: saline with Tween-80) was 98 % of control; the T/C (endpoint: mean survival time, dose: 1.56 mg/kg/injection, schedule: Q04DX002 (ip), vehicle: saline with Tween-80) is 100 % of control; the T/C (endpoint: mean survival time, dose: 3.13 mg/kg/injection, schedule: Q01DX009 (ip), vehicle: saline with Tween-80) is 95 % of control; the T/C (endpoint: mean survival time, dose: 3.13 mg/kg/injection, schedule: Q04DX002 (ip), vehicle: saline with Tween-80) was 95 % of control; the T/C (endpoint: mean survival time, dose: 6.25 mg/kg/injection, schedule: Q04DX002 (ip), vehicle: saline with Tween-80) was 88 % of control; the T/C (endpoint: mean survival time, dose: 25.0 mg/kg/injection, schedule: Q04DX002 (ip), vehicle: saline with Tween-80) was 102 % of control.
As for `OC(CC(O)(C(F)(F)F)C(F)(F)F)CC(O)(C(F)(F)F)C(F)(F)F`, the T/C was 95 % of control (endpoint: mean survival time, dose: 6.25 mg/kg/injection, schedule: Q01DX009 (ip), vehicle: saline with Tween-80); 92 % of control (endpoint: mean survival time, dose: 12.5 mg/kg/injection, schedule: Q01DX009 (ip), vehicle: saline with Tween-80); 90 % of control under setting [9].
With `O=C(NC(=S)Nc1cccc2ccccc12)c1cccc(Br)c1`, the T/C runs as follows: (endpoint: mean survival time, dose: 50.0 mg/kg/injection, schedule: Q04DX002 (ip), vehicle: saline with Tween-80) 89 % of control and 98 % of control; (endpoint: mean survival time, dose: 100.0 mg/kg/injection, schedule: Q01DX001 (ip), vehicle: saline with Tween-80) 96 % of control; under setting [10], 98 % of control and 104 % of control; under setting [1], 96 % of control; (endpoint: mean survival time, dose: 200.0 mg/kg/injection, schedule: Q01DX001 (ip), vehicle: saline with Tween-80) 95 % of control; (endpoint: mean survival time, dose: 200.0 mg/kg/injection, schedule: Q01DX009 (ip), vehicle: saline with Tween-80) 96 % of control and 98 % of control. The T/C runs as follows: under setting [2], 100 % of control; (endpoint: mean survival time, dose: 400.0 mg/kg/injection, schedule: Q01DX001 (ip), vehicle: saline with Tween-80) 95 % of control; (endpoint: mean survival time, dose: 400.0 mg/kg/injection, schedule: Q01DX009 (ip), vehicle: saline with Tween-80) 102 % of control and 106 % of control; (endpoint: mean survival time, dose: 400.0 mg/kg/injection, schedule: Q04DX002 (ip), vehicle: saline with Tween-80) 90 % of control and 95 % of control; under setting [3], 96 % of control.
`OC(O)(C(F)(F)F)C(F)(F)F`: the T/C (endpoint: mean survival time, dose: 50.0 mg/kg/injection, schedule: Q01DX005 (ip), vehicle: saline) was 103 % of control; the T/C (endpoint: mean survival time, dose: 100.0 mg/kg/injection, schedule: Q01DX005 (ip), vehicle: saline) was 91 % of control; the T/C under setting [11] was 103 % of control; the T/C under setting [12] was 109 % of control.
Turning to `O=C(Nc1ccccc1[N+](=O)[O-])c1ccc(C(=O)Nc2ccccc2[N+](=O)[O-])cc1`, the T/C runs as follows: (endpoint: mean survival time, dose: 75.0 mg/kg/injection, schedule: Q01DX001 (ip), vehicle: saline) 87 % of control; (endpoint: mean survival time, dose: 150.0 mg/kg/injection, schedule: Q01DX001 (ip), vehicle: saline) 96 % of control; (endpoint: mean survival time, dose: 300.0 mg/kg/injection, schedule: Q01DX001 (ip), vehicle: saline) 91 % of control.
In the case of `O=C1C(Cl)=C(c2ccccc2)C(=O)C(Cl)=C1c1ccccc1`, the T/C reads like this: under setting [5], 103 % of control; under setting [1], 109 % of control; under setting [2], 107 % of control.
As to `O=C1CCCO1`, the T/C runs as follows: (endpoint: mean survival time, dose: 12.0 mg/kg/injection, schedule: Q01DX009 (ip), vehicle: saline) 99 % of control; (endpoint: mean survival time, dose: 50.0 mg/kg/injection, schedule: Q01DX009 (ip), vehicle: saline) 91 % of control; (endpoint: mean survival time, dose: 100.0 mg/kg/injection, schedule: Q01DX009 (ip), vehicle: saline) 92 % of control; under setting [11], 107 % of control; under setting [12], 98 % of control; (endpoint: mean survival time, dose: 400.0 mg/kg/injection, schedule: Q04DX002 (ip), vehicle: saline) 102 % of control.
On to `CC1(OO)CC(=O)OO1` (stereo not given), for which the T/C is 90 % of control under setting [6], 95 % of control under setting [7] and 92 % of control under setting [8].
As to `COC(C)(C)O/N=C(\C[n+]1ccccc1)c1ccccc1`, the T/C was 95 % of control (endpoint: mean survival time, dose: 12.5 mg/kg/injection, schedule: Q01DX009 (ip), vehicle: water); 91 % of control (endpoint: mean survival time, dose: 25.0 mg/kg/injection, schedule: Q01DX009 (ip), vehicle: water); 90 % of control (endpoint: mean survival time, dose: 50.0 mg/kg/injection, schedule: Q01DX009 (ip), vehicle: water).
Regarding `NC(CCC(=O)NC(CS)C(=O)NCC(=O)O)C(=O)O` (stereo not given), the T/C is 100 % of control (endpoint: median survival time, dose: 25.0 mg/kg/injection, schedule: Q01DX009 (ip), vehicle: saline); 110 % of control (endpoint: median survival time, dose: 50.0 mg/kg/injection, schedule: Q01DX009 (ip), vehicle: saline); 104 % of control (endpoint: median survival time, dose: 100.0 mg/kg/injection, schedule: Q01DX009 (ip), vehicle: saline); 104 % of control (endpoint: median survival time, dose: 200.0 mg/kg/injection, schedule: Q01DX009 (ip), vehicle: saline); 94 % of control (endpoint: median survival time, dose: 400.0 mg/kg/injection, schedule: Q01DX009 (ip), vehicle: saline).
For `O=C(Nc1ccc(Cl)c(Cl)c1)Nc1cc(Cl)ccc1Sc1ccc(Cl)cc1S(=O)(=O)O`, the T/C is 100 % of control under setting [9]; 100 % of control (endpoint: mean survival time, dose: 50.0 mg/kg/injection, schedule: Q01DX009 (ip), vehicle: saline with Tween-80); 105 % of control under setting [10]; 101 % of control under setting [1].
For `Nc1cc(N)c2cccnc2c1O`, the T/C reads like this: (endpoint: mean survival time, dose: 6.25 mg/kg/injection, schedule: Q01DX009 (ip), vehicle: saline) 101 % of control; (endpoint: mean survival time, dose: 12.5 mg/kg/injection, schedule: Q01DX009 (ip), vehicle: saline) 114 % of control.
